Test results taken from patent US9718808B2, “Inhibitors of the renal outer medullary potassium channel” (Merck Sharp & Dohme Corp., priority 2014, dated 2017).

Target: ROMK (Kir1.1) channel (Homo sapiens (Human), UniProt P48048)
Assay: Thallium Flux Assay
Assay type: cell-based
Procedure: A Thallium Flux Assay was performed on each of the final product compounds of the Examples. This assay has been described previously; see, e.g., PCT Published Application WO 2013/062900.

ROMK (Kir1.1) channel, sequence (P48048 whole entry): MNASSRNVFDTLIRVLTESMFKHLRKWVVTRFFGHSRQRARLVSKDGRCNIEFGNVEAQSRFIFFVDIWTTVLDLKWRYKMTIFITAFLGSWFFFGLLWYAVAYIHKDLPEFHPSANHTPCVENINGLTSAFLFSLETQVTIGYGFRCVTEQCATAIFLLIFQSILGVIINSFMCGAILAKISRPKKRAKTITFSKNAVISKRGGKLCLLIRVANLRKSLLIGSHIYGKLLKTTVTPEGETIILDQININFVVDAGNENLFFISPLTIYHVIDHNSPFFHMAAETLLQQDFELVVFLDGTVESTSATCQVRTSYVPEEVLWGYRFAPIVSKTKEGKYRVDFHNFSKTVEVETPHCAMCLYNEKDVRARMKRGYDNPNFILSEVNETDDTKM

CC1=C(N2CC[C@]3(CC[C@H](N(C)[C@H](CO)c4ccc(-n5cnnn5)nc4)CC3)C2=O)COC1=O [Example 85]
IC50: 190 nM

CC1=C(N2CC[C@]3(CC[C@@H](N(C)[C@H](CO)c4ccc(-n5cnnn5)nc4)CC3)C2=O)COC1=O [Example 86]
IC50: 480 nM

CC1=C(N2CC[C@]3(CC[C@H](N(C)Cc4ccc(-n5cnnn5)cn4)CC3)C2=O)COC1=O [Example 87]
IC50: 550 nM

CC1=C(N2CC[C@]3(CC[C@@H](N(C)Cc4ccc(-n5cnnn5)cn4)CC3)C2=O)COC1=O [Example 88]
IC50: 7 nM

CC1=C(N2CC[C@]3(CC[C@H](N(C)Cc4ccc5c(c4)Cn4nnnc4-5)CC3)C2=O)COC1=O [Example 89]
IC50: 950 nM

CC1=C(N2CC[C@]3(CC[C@@H](N(C)Cc4ccc5c(c4)Cn4nnnc4-5)CC3)C2=O)COC1=O [Example 90]
IC50: 22 nM

CC1=C(N2CC[C@]3(CC[C@H](N(C)Cc4cnc(-n5cnnn5)cn4)CC3)C2=O)COC1=O [Example 91]
IC50: 690 nM

CC1=C(N2CC[C@]3(CC[C@@H](N(C)Cc4cnc(-n5cnnn5)cn4)CC3)C2=O)COC1=O [Example 92]
IC50: 29 nM

CC1=C(N2CC[C@]3(CC[C@H](N(C)[C@H](C)c4ccc(-n5cnnn5)nc4)CC3)C2=O)COC1=O [Example 93]
IC50: 510 nM

CC1=C(N2CC[C@]3(CC[C@@H](N(C)[C@H](C)c4ccc(-n5cnnn5)nc4)CC3)C2=O)COC1=O [Example 94]
IC50: 11 nM

CC1=C(N2CC[C@]3(CC[C@@H](N(C)[C@@H](C)c4ccc(-n5cnnn5)nc4)CC3)C2=O)COC1=O [Example 95]
IC50: 24 nM

CC1=C(N2CC[C@]3(CC[C@@H](N(C)Cc4ccc5c(ccc6nnnn65)c4)CC3)C2=O)COC1=O [Example 96]
IC50: 21 nM

CC1=C(N2CC[C@]3(CC[C@H](N(C)[C@@H](CO)c4ccc(-n5cnnn5)nc4)CC3)C2=O)COC1=O [Example 101]
IC50: 290 nM

CC1=C(N2CC[C@]3(CC[C@@H](N(C)[C@@H](CO)c4ccc(-n5cnnn5)nc4)CC3)C2=O)COC1=O [Example 102]
IC50: 300 nM

CN(Cc1ccc(-n2cnnn2)nn1)C1CCC2(CC1)CCN(C1=CC(=O)OC1)C2=O (centres unmarked) [Example 103]
IC50: 87 nM

C[C@H]1C[C@]2(CC[C@@H](N(C)Cc3ccc(-n4cnnn4)nn3)CC2)C(=O)N1C1=CC(=O)OC1 [Example 104, (3S,5r,8S)-8-(((6-(1H-tetrazol-1-yl)pyridazin-3-yl)methyl)(methyl)amino)-3-methyl-2-(5-oxo-2,5-dihydrofuran-3-yl)-2-azaspiro[4.5]decan-1-one]
IC50: 41 nM

CC1=C(N2CC[C@]3(CC[C@H](N(C)CCc4ccc5c(c4)COC5=O)CC3)C2=O)COC1=O [Example 105]
IC50: 150 nM

CC1=C(N2CC[C@]3(CC[C@@H](N(C)Cc4ccc5c(c4)Cn4nnnc4-5)CC3)C2=O)COC1=O [Example 106]
IC50: 8.8 nM

CC1=C(N2CC[C@]3(CC[C@@H](N(C)Cc4nnc(-n5cnnn5)cc4C)CC3)C2=O)COC1=O [Example 107]
IC50: 22 nM

CC1=C(N2CC[C@]3(CC[C@@H](N(C)Cc4ccc(-n5ncnn5)cc4)CC3)C2=O)COC1=O [Example 109]
IC50: 3.4 nM

CC1=C(N2CC[C@]3(CC[C@H](N(C)Cc4ccc(-n5ncnn5)cc4)CC3)C2=O)COC1=O [Example 111]
IC50: 300 nM

CC1=C(N2CC[C@]3(CC[C@@H](N(C)Cc4ccc5c(c4)CCc4nnnn4-5)CC3)C2=O)COC1=O [Example 112]
IC50: 32 nM

CC1=C(N2CC[C@]3(CC[C@@H](N(C)Cc4ccc(-n5ncnn5)nn4)CC3)C2=O)COC1=O [Example 113]
IC50: 36 nM

CC1=C(N2CC[C@]3(CC[C@H](N(C)Cc4ccc(-n5ncnn5)nn4)CC3)C2=O)COC1=O [Example 114]
IC50: 430 nM

CC1=C(N2CC[C@]3(CC[C@](C)(N(C)Cc4ccc(-n5cnnn5)nn4)CC3)C2=O)COC1=O [Example 115]
IC50: 15 nM

CC1=C(N2CC[C@]3(CC[C@@](C)(N(C)Cc4ccc(-n5cnnn5)nn4)CC3)C2=O)COC1=O [Example 116]
IC50: 24 nM

CC1=C(N2C(=O)[C@]3(CC[C@H](N(C)Cc4ccc5c(c4)Cn4nnnc4-5)CC3)C[C@@H]2C)COC1=O [Example 120]
IC50: 43 nM

CC1=C(N2CC[C@]3(CC[C@@H](N(C)Cc4ccc5c(c4F)Cn4nnnc4-5)CC3)C2=O)COC1=O [Example 121]
IC50: 23 nM

CC1=C(N2CC[C@]3(CC[C@@H](N(C)Cc4cc5c(cc4C)-c4nnnn4C5)CC3)C2=O)COC1=O [Example 122]
IC50: 26 nM

CC1=C(N2CC[C@]3(CC[C@H](N(C)C[C@H](O)c4ccc5c(c4C)COC5=O)CC3)C2=O)COC1=O [Example 123]
IC50: 77 nM

CC1=C(N2CCC3(CCC(N(C)C[C@H](O)c4ccc5c(c4C)COC5=O)CC3)C2=O)COC1=O (some centres unmarked) [Example 124]
IC50: 64 nM

CC1=C(N2CC[C@]3(CC[C@@H](N(C)Cc4ncc(-n5cnnn5)nc4C)CC3)C2=O)COC1=O [Example 125]
IC50: 22 nM

CC1=C(N2CC[C@]3(CC[C@](C)(N(C)Cc4cnc(-n5cnnn5)cn4)CC3)C2=O)COC1=O [Example 127]
IC50: 91 nM

CN(Cc1cnc(-n2cnnn2)cn1)C1CCC2(CC1)CCN(C1=CC(=O)OC1)C2=O (centres unmarked) [Example 128]
IC50: 93 nM

CC1=C(N2CC[C@]3(CC[C@@](C)(N(C)Cc4cnc(-n5cnnn5)cn4)CC3)C2=O)COC1=O [Example 129]
IC50: 45 nM

CC1=C(N2CC[C@]3(CC[C@@H](N(CCO)Cc4ccc(-n5cnnn5)nc4)CC3)C2=O)COC1=O [Example 130, (5r,8r)-8-(((6-(1H-tetrazol-1-yl)pyridin-3-yl)methyl)(2-hydroxyethyl)amino)-2-(4-methyl-5-oxo-2,5-dihydrofuran-3-yl)-2-azaspiro[4.5]decan-1-one]
IC50: 30 nM

CC1=C(N2CC[C@]3(CC[C@H](N(CCO)Cc4ccc(-n5cnnn5)nc4)CC3)C2=O)COC1=O [Example 131, (5s,8s)-8-[(2-hydroxyethyl) {[6-(1H-tetrazol-1-yl)pyridin-3-yl]methyl}amino]-2-(4-methyl-5-oxo-2,5-dihydrofuran-3-yl)-2-azaspiro[4.5]decan-1-one]
IC50: 160 nM

CCCN(C[C@H](O)c1ccc2c(c1C)COC2=O)C1CCC2(CC1)CCN(C1=C(C)C(=O)OC1)C2=O (stereo partly drawn) [Example 132, 8-{[(2R)-2-hydroxy-2-(4-methyl-1-oxo-1,3-dihydro-2-benzofuran-5-yl)ethyl](propyl)amino}-2-(4-methyl-5-oxo-2,5-dihydrofuran-3-yl)-2-azaspiro[4.5]decan-1-one]
IC50: 100 nM

CCN(Cc1ccc2c(c1)Cn1nnnc1-2)[C@H]1CC[C@@]2(CCN(C3=C(C)C(=O)OC3)C2=O)CC1 [Example 133]
IC50: 36 nM

CCN(Cc1ccc(-n2cnnn2)nc1)[C@H]1CC[C@]2(CCN(C3=C(C)C(=O)OC3)C2=O)CC1 [Example 134]
IC50: 470 nM

CC1=C(N2CC[C@]3(CC[C@H](N(CCO)Cc4ccc(-n5cnnn5)cn4)CC3)C2=O)COC1=O [Example 136]
IC50: 160 nM

CCN(Cc1ccc(-n2cnnn2)cn1)[C@H]1CC[C@]2(CCN(C3=C(C)C(=O)OC3)C2=O)CC1 [Example 138]
IC50: 34 nM

CC1=C(N2CC[C@]3(CC[C@H](N(CC(=O)N(C)C)Cc4ccc(-n5cnnn5)nc4)CC3)C2=O)COC1=O [Example 139]
IC50: 120 nM

CC1=C(N2CC[C@]3(CC[C@H](N(CC(N)=O)Cc4ccc(-n5cnnn5)nc4)CC3)C2=O)COC1=O [Example 140]
IC50: 110 nM

CC1=C(N2CC[C@]3(CC[C@@H](N(CC(N)=O)Cc4ccc(-n5cnnn5)nc4)CC3)C2=O)COC1=O [Example 141]
IC50: 680 nM

CCN(Cc1ccc2c(c1C)COC2=O)C1CCC2(CC1)CCN(C1=C(C)C(=O)OC1)C2=O (centres unmarked) [Example 142]
IC50: 490 nM

(5s,8s)-2-(4-methyl-5-oxo-2,5-dihydrofuran-3-yl)-8-({[5-(1H-tetrazol-1-yl)pyrazin-2-yl]methyl}amino)-2-azaspiro[4.5]decan-1-one [Example 13]
IC50: 32 nM
